Measurements reported in ChEMBL document CHEMBL5352406 (Eur J Med Chem, 2022).

Experiments:
Assay type in all cases: functional
[1] = test system: HCT-116; experiment: Antiproliferative activity against human HCT-116 cells assessed as cell growth inhibition after 72 hrs by MTT assay
[2] = test system: SW480; experiment: Antiproliferative activity against human SW480 cells assessed as cell growth inhibition after 72 hrs by MTT assay
[3] = test system: A549; experiment: Antiproliferative activity against human A549 cells assessed as cell growth inhibition after 72 hrs by MTT assay
[4] = test system: MCF7; experiment: Antiproliferative activity against human MCF7 cells assessed as cell growth inhibition after 72 hrs by MTT assay
[5] = test system: HCT-116; experiment: Induction of apoptosis in human HCT-116 cells assessed as viable cells at 10 nM measured after 48 hrs by Annexin V-FITC/PI assay (reference value: 88.5%); details: read-out: Activity
[6] = test system: HCT-116; experiment: Induction of apoptosis in human HCT-116 cells assessed as early apoptotic cells at 10 nM measured after 48 hrs by Annexin V-FITC/PI assay (reference value: 3.16%)
[7] = test system: HCT-116; experiment: Induction of apoptosis in human HCT-116 cells assessed as late apoptotic cells at 10 nM measured after 48 hrs by Annexin V-FITC/PI assay (reference value: 6.06%)
[8] = test system: HCT-116; experiment: Induction of apoptosis in human HCT-116 cells assessed as necrotic cells at 10 nM measured after 48 hrs by Annexin V-FITC/PI assay (reference value: 2.31%)
[9] = test system: HCT-116; experiment: Cell cycle arrest in human HCT-116 cells assessed as accumulation of cells at G0-G1 phase at 10 nM measured after 48 hrs by flow cytometry (reference value: 62.18%)
[10] = test system: HCT-116; experiment: Cell cycle arrest in human HCT-116 cells assessed as accumulation of cells at S phase at 10 nM measured after 48 hrs by flow cytometry (reference value: 31.43%)
[11] = test system: HCT-116; experiment: Cell cycle arrest in human HCT-116 cells assessed as accumulation of cells at […] phase at 10 nM measured after 48 hrs by flow cytometry (reference value: 6.39%)

CCc1cnn2c(NCc3ccc[n+]([O-])c3)cc(N3CCCC[C@H]3CCO)nc12 [DINACICLIB]
GI50 [1]: 9 nM | GI50 [2]: 8 nM | GI50 [3]: 6 nM | GI50 [4]: 12 nM | viability at 0.01 µM [5]: 55.3% | Activity [6]: 33.2% | Activity [7]: ~10.4% | Activity [8]: 1.14% | Activity [9]: 45.02% | Activity [10]: 44.93% | Activity [11]: 10.05%
